According to patent publication US9340590B2 (priority 2011, dated 2016):
pIC50: −log10 of the molar value. Like-named read-outs stand apart in the source and are kept apart here. Positions of bridges follow the written chain, without caps; N, C: chain ends. Residues, ends and D or L forms follow the SMILES beside them.

Experiments:
Assay in all cases: cell-based
[1] = molecular target: hNav1.7 (Homo sapiens, UniProt Q15858); type: cell-based; details: IonWorks Quattro, read-out: IWQ Use Nav1.7
[2] = molecular target: hNav1.5 (Homo sapiens, UniProt Q14524); details: IonWorks Quattro, read-out: IWQ Use Nav1.5
[3] = molecular target: hNav1.3 (Homo sapiens, UniProt Q9NY46); details: IonWorks Quattro, read-out: IWQ Use Nav1.3
Chain of hNav1.3 (Q9NY46 whole entry, looked up): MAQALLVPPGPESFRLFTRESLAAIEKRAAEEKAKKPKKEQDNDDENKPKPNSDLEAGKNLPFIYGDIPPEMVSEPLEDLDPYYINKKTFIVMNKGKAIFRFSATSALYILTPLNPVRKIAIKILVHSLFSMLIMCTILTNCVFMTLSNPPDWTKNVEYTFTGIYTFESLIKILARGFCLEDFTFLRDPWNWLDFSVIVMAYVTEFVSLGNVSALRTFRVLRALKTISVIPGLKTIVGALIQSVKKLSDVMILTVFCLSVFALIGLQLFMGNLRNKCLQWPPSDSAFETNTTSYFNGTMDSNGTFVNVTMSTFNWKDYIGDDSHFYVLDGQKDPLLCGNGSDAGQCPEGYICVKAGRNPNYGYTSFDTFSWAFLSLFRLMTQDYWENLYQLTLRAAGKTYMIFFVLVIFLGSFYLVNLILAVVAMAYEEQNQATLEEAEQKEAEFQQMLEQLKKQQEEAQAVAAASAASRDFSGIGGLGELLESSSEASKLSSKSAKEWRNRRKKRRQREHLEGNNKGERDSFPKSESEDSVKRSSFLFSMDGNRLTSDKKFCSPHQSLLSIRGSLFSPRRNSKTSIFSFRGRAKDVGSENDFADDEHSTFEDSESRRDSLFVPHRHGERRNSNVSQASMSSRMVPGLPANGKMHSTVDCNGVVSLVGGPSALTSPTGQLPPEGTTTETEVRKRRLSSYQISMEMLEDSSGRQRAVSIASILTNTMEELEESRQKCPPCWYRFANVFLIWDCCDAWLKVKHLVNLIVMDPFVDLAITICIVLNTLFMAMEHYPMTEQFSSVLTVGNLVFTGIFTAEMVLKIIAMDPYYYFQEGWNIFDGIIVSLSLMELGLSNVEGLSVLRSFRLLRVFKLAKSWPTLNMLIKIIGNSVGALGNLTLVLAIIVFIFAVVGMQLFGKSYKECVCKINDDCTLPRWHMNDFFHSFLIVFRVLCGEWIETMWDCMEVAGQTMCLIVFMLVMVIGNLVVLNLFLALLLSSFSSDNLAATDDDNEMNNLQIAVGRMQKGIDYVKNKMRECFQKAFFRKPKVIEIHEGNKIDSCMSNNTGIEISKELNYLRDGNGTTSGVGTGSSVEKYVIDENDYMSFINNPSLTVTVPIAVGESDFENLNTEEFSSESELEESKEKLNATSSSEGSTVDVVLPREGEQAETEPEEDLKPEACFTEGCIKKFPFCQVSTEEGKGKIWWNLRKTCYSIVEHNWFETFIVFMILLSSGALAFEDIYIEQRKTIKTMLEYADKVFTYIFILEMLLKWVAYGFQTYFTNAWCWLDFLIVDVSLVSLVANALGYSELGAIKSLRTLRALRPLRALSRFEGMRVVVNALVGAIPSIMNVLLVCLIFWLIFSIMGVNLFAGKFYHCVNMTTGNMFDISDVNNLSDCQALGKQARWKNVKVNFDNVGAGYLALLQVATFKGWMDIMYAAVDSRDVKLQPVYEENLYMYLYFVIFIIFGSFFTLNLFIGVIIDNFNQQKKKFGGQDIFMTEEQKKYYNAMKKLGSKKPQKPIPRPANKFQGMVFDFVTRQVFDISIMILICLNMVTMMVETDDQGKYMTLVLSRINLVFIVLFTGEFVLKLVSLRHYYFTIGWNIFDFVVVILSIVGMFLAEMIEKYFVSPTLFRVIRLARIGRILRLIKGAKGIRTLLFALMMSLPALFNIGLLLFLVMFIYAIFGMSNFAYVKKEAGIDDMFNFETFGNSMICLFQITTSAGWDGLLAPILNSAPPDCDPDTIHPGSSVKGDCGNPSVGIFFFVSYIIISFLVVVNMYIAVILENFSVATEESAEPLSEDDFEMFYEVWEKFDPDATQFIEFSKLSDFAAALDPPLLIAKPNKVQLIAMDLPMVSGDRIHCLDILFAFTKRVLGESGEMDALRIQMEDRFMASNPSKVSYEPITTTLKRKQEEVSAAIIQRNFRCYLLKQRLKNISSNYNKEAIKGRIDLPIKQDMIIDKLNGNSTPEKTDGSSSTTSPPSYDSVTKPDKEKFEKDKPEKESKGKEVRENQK

[4] = clamped to −110 mV, depolarized to −10 mV, 5 min after compound, n=2
[5] = use-dependent protocol, hNav1.7
[6] = use-dependent protocol, hNav1.5
[7] = use-dependent protocol, hNav1.3

Chain of hNav1.7 (Q15858 whole entry, looked up): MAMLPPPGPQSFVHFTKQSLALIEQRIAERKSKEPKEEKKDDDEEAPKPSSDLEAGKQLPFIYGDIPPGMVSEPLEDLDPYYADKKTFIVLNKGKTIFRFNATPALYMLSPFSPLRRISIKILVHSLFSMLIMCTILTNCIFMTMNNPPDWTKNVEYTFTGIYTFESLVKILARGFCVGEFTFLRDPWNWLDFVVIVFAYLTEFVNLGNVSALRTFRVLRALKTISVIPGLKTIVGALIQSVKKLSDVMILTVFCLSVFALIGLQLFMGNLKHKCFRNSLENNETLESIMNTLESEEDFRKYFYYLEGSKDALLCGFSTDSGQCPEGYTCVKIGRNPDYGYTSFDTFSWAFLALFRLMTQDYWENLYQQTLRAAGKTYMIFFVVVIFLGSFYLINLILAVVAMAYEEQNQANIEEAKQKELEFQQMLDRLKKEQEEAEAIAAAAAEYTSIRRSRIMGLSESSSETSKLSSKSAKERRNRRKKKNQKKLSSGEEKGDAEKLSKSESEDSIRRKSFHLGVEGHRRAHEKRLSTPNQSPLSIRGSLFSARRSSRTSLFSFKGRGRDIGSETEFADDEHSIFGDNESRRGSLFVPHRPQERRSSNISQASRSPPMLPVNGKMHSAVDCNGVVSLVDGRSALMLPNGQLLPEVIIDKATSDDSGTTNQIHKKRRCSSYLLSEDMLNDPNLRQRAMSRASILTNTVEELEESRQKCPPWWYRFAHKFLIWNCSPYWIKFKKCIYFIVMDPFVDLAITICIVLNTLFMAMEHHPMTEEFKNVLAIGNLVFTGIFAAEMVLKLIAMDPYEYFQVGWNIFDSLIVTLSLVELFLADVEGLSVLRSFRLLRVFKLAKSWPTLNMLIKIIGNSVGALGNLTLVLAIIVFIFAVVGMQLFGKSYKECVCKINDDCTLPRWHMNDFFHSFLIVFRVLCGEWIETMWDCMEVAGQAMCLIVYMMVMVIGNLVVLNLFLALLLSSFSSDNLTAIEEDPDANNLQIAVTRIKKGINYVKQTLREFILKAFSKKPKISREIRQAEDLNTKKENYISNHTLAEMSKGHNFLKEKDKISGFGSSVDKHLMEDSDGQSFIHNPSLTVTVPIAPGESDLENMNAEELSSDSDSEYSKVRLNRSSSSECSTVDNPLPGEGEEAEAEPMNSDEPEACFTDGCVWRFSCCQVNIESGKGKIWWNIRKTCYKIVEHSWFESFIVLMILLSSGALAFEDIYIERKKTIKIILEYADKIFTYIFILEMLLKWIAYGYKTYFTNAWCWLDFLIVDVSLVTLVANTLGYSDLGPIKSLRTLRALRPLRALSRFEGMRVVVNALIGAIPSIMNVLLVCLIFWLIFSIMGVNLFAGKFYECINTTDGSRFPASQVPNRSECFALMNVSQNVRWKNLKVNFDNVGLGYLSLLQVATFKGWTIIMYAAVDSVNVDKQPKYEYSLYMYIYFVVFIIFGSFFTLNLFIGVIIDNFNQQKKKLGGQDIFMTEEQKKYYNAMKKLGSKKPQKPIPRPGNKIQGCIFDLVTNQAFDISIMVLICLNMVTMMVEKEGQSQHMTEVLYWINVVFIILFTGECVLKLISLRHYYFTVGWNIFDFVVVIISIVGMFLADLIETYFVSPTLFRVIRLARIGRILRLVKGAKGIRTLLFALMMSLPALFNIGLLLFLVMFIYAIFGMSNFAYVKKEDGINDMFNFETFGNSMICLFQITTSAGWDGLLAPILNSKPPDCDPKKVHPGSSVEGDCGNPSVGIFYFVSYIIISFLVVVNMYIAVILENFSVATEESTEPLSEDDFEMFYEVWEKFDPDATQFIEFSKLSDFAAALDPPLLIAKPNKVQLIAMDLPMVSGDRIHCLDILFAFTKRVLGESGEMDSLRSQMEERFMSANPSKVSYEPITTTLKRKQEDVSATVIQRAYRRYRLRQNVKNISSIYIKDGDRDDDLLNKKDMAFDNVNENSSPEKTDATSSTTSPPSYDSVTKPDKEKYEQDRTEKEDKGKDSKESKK

Compound	pIC50 ([1]; use-dependent block, hNav1.7)	pIC50 ([2]; use-dependent block, hNav1.5)	pIC50 ([3]; use-dependent block, hNav1.3)	pIC50 [1, 5]	pIC50 [2, 6]	pIC50 [3, 7]	other results
CSCC[C@@H]1NC(=O)[C@H](Cc2ccccc2)NC(=O)CNC(=O)[C@H](CC(C)C)NC(=O)[C@@H](NC(=O)[C@@H](N)CC(=O)O)CSSC[C@@H]2NC(=O)[C@@H]3CSSC[C@@H](C(=O)N[C@@H](CCCCN)C(=O)N[C@@H](Cc4ccc(O)cc4)C(=O)N[C@@H](Cc4cccc5ccccc45)C(=O)N[C@@H](Cc4ccccc4)C(N)=O)NC(=O)[C@H](Cc4c[nH]c5ccccc45)NC(=O)[C@H](CCCCN)NC(=O)[C@H](Cc4c[nH]cn4)NC(=O)[C@H]([C@@H](C)O)NC(=O)[C@H](CCCNC(=N)N)NC(=O)[C@H](CO)NC(=O)[C@H](CSSC[C@H](NC(=O)[C@H](CCCCN)NC(=O)[C@H](CCCNC(=N)N)NC1=O)C(=O)N[C@@H](Cc1cccc4ccccc14)C(=O)N1CCC[C@H]1C(=O)N[C@@H](CC(=O)O)C(=O)N[C@@H](CC(N)=O)C(=O)N[C@@H](CC(=O)O)C(=O)N[C@@H](CCCCN)C(=O)N3)NC(=O)[C@H](C(C)C)NC(=O)[C@H](CC(C)C)NC(=O)[C@H](CC(N)=O)NC(=O)[C@@H]1CCCN1C(=O)[C@H](CCCNC(=N)N)NC2=O [compound 462]	6.96	< 5.30	7.15	–	–	–	–
CC[C@H](C)[C@@H]1NC(=O)[C@@H]2CSSC[C@@H]3NC(=O)[C@H](C(C)C)NC(=O)[C@H](CC(C)C)NC(=O)[C@H](CC(N)=O)NC(=O)[C@@H]4CCCN4C(=O)[C@H](CCCNC(=N)N)NC(=O)[C@H](CSSC[C@H](NC(=O)[C@@H](N)CC(=O)O)C(=O)N[C@@H](CC(C)C)C(=O)NCC(=O)N[C@@H](Cc4ccc(O)cc4)C(=O)N[C@@H](CCSC)C(=O)N[C@@H](CCCNC(=N)N)C(=O)N[C@@H](CCCCN)C(=O)N2)NC(=O)[C@H](CSSC[C@@H](C(=O)N[C@@H](CCCCN)C(=O)N[C@@H](Cc2ccc(O)cc2)C(=O)N[C@H](C(=O)N[C@@H](Cc2ccccc2)C(N)=O)C(C)C)NC(=O)[C@H](Cc2c[nH]c4ccccc24)NC(=O)[C@H](CCCCN)NC(=O)[C@H](Cc2c[nH]cn2)NC(=O)[C@H]([C@@H](C)O)NC(=O)[C@H](CCCNC(=N)N)NC(=O)[C@H](CO)NC3=O)NC(=O)[C@H](CCCCN)NC(=O)[C@H](CC(=O)O)NC(=O)[C@H](CC(N)=O)NC(=O)[C@H](CC(=O)O)NC(=O)[C@@H]2CCCN2C1=O [SEQ ID NO: 271] (H-DCLGYMRKCIPDNDKCCRPNLVCSRTHKWCKYVF-NH2; disulfide 2-17, 9-23, 16-30)	–	–	–	–	–	–	pIC50 [1, 4]: 5.84; pIC50 [2, 4]: 4.81; pIC50 [3, 4]: 5.79
CC[C@H](C)[C@@H]1NC(=O)[C@@H]2CSSC[C@@H]3NC(=O)[C@H](C(C)C)NC(=O)[C@H](CC(C)C)NC(=O)[C@H](CC(N)=O)NC(=O)[C@@H]4CCCN4C(=O)[C@H](CCCNC(=N)N)NC(=O)[C@H](CSSC[C@H](NC(=O)[C@@H](N)CC(=O)O)C(=O)N[C@@H](CC(C)C)C(=O)NCC(=O)N[C@@H](CCc4ccccc4)C(=O)N[C@@H](CC(C)C)C(=O)N[C@@H](CCCNC(=N)N)C(=O)N[C@@H](CCCCN)C(=O)N2)NC(=O)[C@H](CSSC[C@@H](C(=O)N[C@@H](CCCCN)C(=O)N[C@@H](Cc2ccc(O)cc2)C(=O)N[C@H](C(=O)N[C@@H](Cc2ccccc2)C(N)=O)C(C)C)NC(=O)[C@H](Cc2c[nH]c4ccccc24)NC(=O)[C@H](CCCCN)NC(=O)[C@H](Cc2c[nH]cn2)NC(=O)[C@H]([C@@H](C)O)NC(=O)[C@H](CCCNC(=N)N)NC(=O)[C@H](CO)NC3=O)NC(=O)[C@H](CCCCN)NC(=O)[C@H](CC(=O)O)NC(=O)[C@H](CC(N)=O)NC(=O)[C@H](CC(=O)O)NC(=O)[C@@H]2CCCN2C1=O [compound 676]	–	–	–	7.80	< 5.30	7.21	–
CC[C@H](C)[C@@H]1NC(=O)[C@@H]2CSSC[C@@H]3NC(=O)[C@H](C(C)C)NC(=O)[C@H](CC(C)C)NC(=O)[C@H](CC(N)=O)NC(=O)[C@@H]4CCCN4C(=O)[C@H](CCCNC(=N)N)NC(=O)[C@H](CSSC[C@H](NC(=O)[C@@H](N)CC(=O)O)C(=O)N[C@@H](CC(C)C)C(=O)NCC(=O)N[C@@H](C)C(=O)N[C@@H](CCSC)C(=O)N[C@@H](CCCNC(=N)N)C(=O)N[C@@H](CCCCN)C(=O)N2)NC(=O)[C@H](CSSC[C@@H](C(=O)N[C@@H](CCCCN)C(=O)N[C@@H](Cc2ccc(O)cc2)C(=O)N[C@H](C(=O)N[C@@H](Cc2ccccc2)C(N)=O)C(C)C)NC(=O)[C@H](Cc2c[nH]c4ccccc24)NC(=O)[C@H](CCCCN)NC(=O)[C@H](Cc2c[nH]cn2)NC(=O)[C@H]([C@@H](C)O)NC(=O)[C@H](CCCNC(=N)N)NC(=O)[C@H](CO)NC3=O)NC(=O)[C@H](CCCCN)NC(=O)[C@H](CC(=O)O)NC(=O)[C@H](Cc2c[nH]c3ccccc23)NC(=O)[C@H](CC(=O)O)NC(=O)[C@@H]2CCCN2C1=O [compound 428] (H-DCLGAMRKCIPDWDKCCRPNLVCSRTHKWCKYVF-NH2; disulfide 2-17, 9-23, 16-30)	6.17	< 5.30	5.96	–	–	–	–
CSCC[C@@H]1NC(=O)[C@H](C(C)C)NC(=O)CNC(=O)[C@H](CC(C)C)NC(=O)[C@@H](NC(=O)[C@@H](N)CC(=O)O)CSSC[C@@H]2NC(=O)[C@@H]3CSSC[C@@H](C(=O)N[C@@H](CCCCN)C(=O)N[C@@H](Cc4ccc(O)cc4)C(=O)N[C@H](C(=O)N[C@@H](Cc4ccccc4)C(N)=O)C(C)C)NC(=O)[C@H](Cc4c[nH]c5ccccc45)NC(=O)[C@H](CCCCN)NC(=O)[C@H](Cc4c[nH]cn4)NC(=O)[C@H]([C@@H](C)O)NC(=O)[C@H](CCCNC(=N)N)NC(=O)[C@H](CO)NC(=O)[C@H](CSSC[C@H](NC(=O)[C@H](CCCCN)NC(=O)[C@H](CCCNC(=N)N)NC1=O)C(=O)N[C@@H](CC(=O)O)C(=O)N1CCC[C@H]1C(=O)N[C@@H](CCC(=O)O)C(=O)N[C@@H](CC(N)=O)C(=O)N[C@@H](CC(=O)O)C(=O)N[C@@H](CCCCN)C(=O)N3)NC(=O)[C@H](C(C)C)NC(=O)[C@H](CC(C)C)NC(=O)[C@H](CC(N)=O)NC(=O)[C@@H]1CCCN1C(=O)[C@H](CCCNC(=N)N)NC2=O [compound 712] (H-DCLGVMRKCDPENDKCCRPNLVCSRTHKWCKYVF-NH2; disulfide 2-17, 9-23, 16-30)	–	–	–	6.34	4.47	5.77	–
CC[C@H](C)[C@@H]1NC(=O)[C@@H]2CSSC[C@@H]3NC(=O)[C@H](C(C)C)NC(=O)[C@H](CC(C)C)NC(=O)[C@H](CC(N)=O)NC(=O)[C@@H]4CCCN4C(=O)[C@H](CCCNC(=N)N)NC(=O)[C@H](CSSC[C@H](NC(=O)[C@@H](N)CC(=O)O)C(=O)N[C@@H](CC(C)C)C(=O)NCC(=O)N[C@@H](CC(C)C)C(=O)N[C@@H](CC(C)C)C(=O)N[C@@H](CCCNC(=N)N)C(=O)N[C@@H](CCCCN)C(=O)N2)NC(=O)[C@H](CSSC[C@@H](C(=O)N[C@@H](CCCCN)C(=O)N[C@@H](Cc2ccc(O)cc2)C(=O)N[C@H](C(=O)N[C@@H](Cc2ccccc2)C(N)=O)C(C)C)NC(=O)[C@H](Cc2c[nH]c4ccccc24)NC(=O)[C@H](CCCCN)NC(=O)[C@H](Cc2c[nH]cn2)NC(=O)[C@H]([C@@H](C)O)NC(=O)[C@H](CCCNC(=N)N)NC(=O)[C@H](CO)NC3=O)NC(=O)[C@H](CCCCN)NC(=O)[C@H](CC(=O)O)NC(=O)[C@H](CC(N)=O)NC(=O)[C@H](CC(=O)O)NC(=O)[C@@H]2CCCN2C1=O [compound 661] (H-DCLGLLRKCIPDNDKCCRPNLVCSRTHKWCKYVF-NH2; disulfide 2-17, 9-23, 16-30)	–	–	–	7.02	< 5.30	6.49	–
CC[C@H](C)[C@@H]1NC(=O)[C@H](CC(=O)O)NC(=O)[C@@H]2CCCN2C(=O)[C@H]([C@@H](C)CC)NC(=O)[C@@H]2CSSC[C@@H]3NC(=O)[C@H](C(C)C)NC(=O)[C@H](CC(C)C)NC(=O)[C@H](CC(N)=O)NC(=O)[C@@H]4CCCN4C(=O)[C@H](CCCNC(=N)N)NC(=O)[C@H](CSSC[C@H](NC(=O)[C@@H](N)CC(=O)O)C(=O)N[C@@H](CC(C)C)C(=O)NCC(=O)N[C@@H](C)C(=O)N[C@@H](CC(C)C)C(=O)N[C@@H](CCCNC(=N)N)C(=O)N[C@@H](CCCCN)C(=O)N2)NC(=O)[C@H](CSSC[C@@H](C(=O)N[C@@H](CCCCN)C(=O)N[C@@H](Cc2ccc(O)cc2)C(=O)N[C@H](C(=O)N[C@@H](Cc2ccccc2)C(=O)O)C(C)C)NC(=O)[C@H](Cc2c[nH]c4ccccc24)NC(=O)[C@H](CCCNC(=N)N)NC(=O)[C@H](Cc2c[nH]cn2)NC(=O)[C@H]([C@@H](C)O)NC(=O)[C@H](CCCNC(=N)N)NC(=O)[C@H](CO)NC3=O)NC(=O)[C@H](CCCCN)NC(=O)[C@H](CC(=O)O)NC1=O [compound 865] (H-DCLGALRKCIPDIDKCCRPNLVCSRTHRWCKYVF-OH; disulfide 2-17, 9-23, 16-30)	< 5.30	< 5.30	< 5.30	–	–	–	–
CC[C@H](C)[C@@H]1NC(=O)[C@@H]2CSSC[C@@H]3NC(=O)[C@H](C(C)C)NC(=O)[C@H](CC(C)C)NC(=O)[C@H](CC(N)=O)NC(=O)[C@@H]4CCCN4C(=O)[C@H](CCCNC(=N)N)NC(=O)[C@H](CSSC[C@H](NC(=O)[C@@H](N)CC(=O)O)C(=O)N[C@@H](CC(C)C)C(=O)NCC(=O)N[C@@H](C)C(=O)N[C@@H](CC(C)C)C(=O)N[C@@H](CCCNC(=N)N)C(=O)N[C@@H](CCCCN)C(=O)N2)NC(=O)[C@H](CSSC[C@@H](C(=O)N[C@@H](CCCCN)C(=O)N[C@@H](Cc2ccc(O)cc2)C(=O)N[C@H](C(=O)N[C@@H](Cc2ccccc2)C(=O)O)C(C)C)NC(=O)[C@H](Cc2c[nH]c4ccccc24)NC(=O)[C@H](CC(N)=O)NC(=O)[C@H](Cc2c[nH]cn2)NC(=O)[C@H]([C@@H](C)O)NC(=O)[C@H](CCCNC(=N)N)NC(=O)[C@H](CO)NC3=O)NC(=O)[C@H](CCCCN)NC(=O)[C@H](CC(=O)O)NC(=O)[C@H](CC(N)=O)NC(=O)[C@H](CC(=O)O)NC(=O)[C@@H]2CCCN2C1=O [compound 601] (H-DCLGALRKCIPDNDKCCRPNLVCSRTHNWCKYVF-OH; disulfide 2-17, 9-23, 16-30)	< 5.30	5.00	5.59	–	–	–	–
